Measurements reported in US20230265151A1, “GIP/GLP1 CO-AGONIST COMPOUNDS” (priority 2020, published 2023).
Where two headings read alike, the source gives them in different places.

How the values were obtained:
Format in all cases: cell-based
hGIPR = molecular target: T1, hGIPR (Homo sapiens, UniProt P48546); assay: Functional cAMP formation (HTRF) in HEK-293 clonal cells expressing hGIPR, 0.1% bovine casein, without or with 1.0% human serum albumin; conditions: 37° C.; for EC50: cAMP, 0.1% bovine casein (no human serum albumin), geometric mean
T1 construct: expressed in transfected cells
T1 sequence (P48546 22-466): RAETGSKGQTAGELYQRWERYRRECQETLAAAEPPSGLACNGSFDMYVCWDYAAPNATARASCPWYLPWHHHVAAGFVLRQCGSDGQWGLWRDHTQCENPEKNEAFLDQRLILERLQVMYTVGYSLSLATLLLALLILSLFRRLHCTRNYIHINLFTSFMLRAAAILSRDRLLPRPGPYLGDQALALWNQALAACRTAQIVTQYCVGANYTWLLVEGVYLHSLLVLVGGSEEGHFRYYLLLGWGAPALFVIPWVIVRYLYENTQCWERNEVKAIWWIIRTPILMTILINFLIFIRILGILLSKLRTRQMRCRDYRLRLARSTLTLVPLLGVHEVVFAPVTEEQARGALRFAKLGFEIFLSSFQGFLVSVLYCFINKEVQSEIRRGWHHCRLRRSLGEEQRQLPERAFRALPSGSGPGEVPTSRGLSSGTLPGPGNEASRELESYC
How it was run: (§1)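 Readings of the HTRF 665/620 nm ratio, which falls as cAMP rises, were converted to nM cAMP using a standard curve after 30 min peptide exposure at 37° C.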

hGCGR = molecular target: T2, hGCGR (Homo sapiens, UniProt P47871); assay: Functional cAMP formation (HTRF) in HEK-293 clonal cells expressing hGCGR, 0.1% bovine casein, without or with 1.0% human serum albumin; conditions: 37° C.
T2 construct: expressed in transfected cells
How it was run: as §1

hGLP-1R = hGLP-1R (Homo sapiens, UniProt P43220); assay: Functional cAMP formation (HTRF) in HEK-293 clonal cells expressing hGLP-1R, 0.1% bovine casein, without or with 1.0% human serum albumin; parameters: expressed in transfected cells; conditions: for EC50: 37° C.
How it was run: as §1

Sequence of hGLP-1R (P43220 24-463): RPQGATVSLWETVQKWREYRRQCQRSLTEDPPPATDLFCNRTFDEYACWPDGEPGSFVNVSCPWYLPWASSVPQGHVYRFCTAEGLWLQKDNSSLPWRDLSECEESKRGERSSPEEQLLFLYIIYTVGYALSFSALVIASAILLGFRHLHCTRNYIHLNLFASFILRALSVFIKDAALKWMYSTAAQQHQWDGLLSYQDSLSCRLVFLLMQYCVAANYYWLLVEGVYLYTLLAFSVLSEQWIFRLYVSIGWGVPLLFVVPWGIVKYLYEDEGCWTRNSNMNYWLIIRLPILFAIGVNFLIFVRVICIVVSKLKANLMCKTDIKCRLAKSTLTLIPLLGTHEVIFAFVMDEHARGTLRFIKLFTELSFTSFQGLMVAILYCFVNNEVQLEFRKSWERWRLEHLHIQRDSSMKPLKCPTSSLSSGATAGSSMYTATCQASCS
T2 sequence (P47871 26-477): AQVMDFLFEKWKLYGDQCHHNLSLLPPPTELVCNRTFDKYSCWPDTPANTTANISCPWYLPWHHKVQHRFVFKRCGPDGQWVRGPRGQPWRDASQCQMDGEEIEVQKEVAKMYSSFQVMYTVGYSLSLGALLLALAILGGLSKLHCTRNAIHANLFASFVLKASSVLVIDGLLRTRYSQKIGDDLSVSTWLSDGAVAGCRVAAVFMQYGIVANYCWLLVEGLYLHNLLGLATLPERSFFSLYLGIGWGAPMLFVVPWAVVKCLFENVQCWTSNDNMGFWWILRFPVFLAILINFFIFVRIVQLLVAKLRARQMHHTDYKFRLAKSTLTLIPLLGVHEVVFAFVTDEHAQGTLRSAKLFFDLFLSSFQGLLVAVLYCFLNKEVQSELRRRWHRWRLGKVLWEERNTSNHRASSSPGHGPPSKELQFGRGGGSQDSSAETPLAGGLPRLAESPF

Row | SMILES | EC50 (hGIPR; hGIPR EC50, nM (SEM, n)) | EC50 (hGCGR; hGCGR EC50, nM (SEM, n), 0.1% bovine casein and 1.0% human serum albumin, geometric mean) | EC50 (hGCGR; hGCGR EC50, nM (SEM, n), cAMP, 0.1% bovine casein (no human serum albumin), geometric mean) | Emax (hGLP-1R; HEK293, read-out: hGLP-1R Emax, % ± SEM, cAMP, 37° C., 0.1% bovine casein, percent of maximal response to GLP-1(7-36)NH2, arithmetic mean) | EC50 (hGLP-1R; hGLP-1R EC50, nM (SEM, n), 0.1% bovine casein and 1.0% human serum albumin, geometric mean) | Emax (hGIPR; HEK293, cAMP, 0.1% bovine casein and 1.0% human serum albumin, percent of maximal response to GIP(1-42)NH2, read-out: hGIPR Emax, % ± SEM) | EC50 (hGIPR; read-out: hGIPR EC50, nM (SEM, n)) | EC50 (hGCGR; cAMP, 0.1% bovine casein (no human serum albumin), geometric mean, read-out: hGCGR EC50, nM (SEM, n)) | EC50 (hGCGR; cAMP, 0.1% bovine casein and 1.0% human serum albumin, geometric mean (SEM, n), read-out: hGCGR EC50, nM (SEM, n)) | EC50 (hGLP-1R; cAMP, 0.1% bovine casein (no human serum albumin), geometric mean, read-out: hGLP-1R EC50, nM (SEM, n)) | EC50 (hGLP-1R; cAMP, 0.1% bovine casein and 1.0% human serum albumin, geometric mean (SEM, n), read-out: hGLP-1R EC50, nM (SEM, n))
1 | CC[C@H](C)[C@H](NC(=O)[C@H](CCCN)NC(=O)[C@H](CC(=O)O)NC(=O)[C@H](CC(C)C)NC(=O)[C@](C)(CC(C)C)NC(=O)[C@@H](NC(=O)[C@H](CO)NC(=O)[C@H](Cc1ccncc1)NC(=O)[C@H](CC(=O)O)NC(=O)[C@H](CO)NC(=O)[C@@H](NC(=O)[C@](C)(Cc1ccccc1F)NC(=O)[C@@H](NC(=O)CNC(=O)[C@H](CCC(=O)O)NC(=O)C(C)(C)NC(=O)[C@@H](N)Cc1ccc(O)cc1)[C@@H](C)O)[C@@H](C)O)[C@@H](C)CC)C(=O)N[C@@H](C)C(=O)N[C@@H](CCC(N)=O)C(=O)NC(C)(C)C(=O)N[C@@H](CCCCNC(=O)COCCOCCNC(=O)COCCOCCNC(=O)CC[C@H](NC(=O)CCCCCCCCCOc1ccc(C(=O)O)cc1)C(=O)O)C(=O)N[C@@H](Cc1ccccc1)C(=O)N[C@H](C(=O)N[C@H](CCC(=O)O)C(=O)N[C@@](C)(Cc1ccc(O)cc1)C(=O)N[C@@H](CC(C)C)C(=O)N[C@H](C(=O)N[C@@H](CCCCNC(=O)COCCOCCNC(=O)COCCOCCNC(=O)CC[C@H](NC(=O)CCCCCCCCCOc1ccc(C(=O)O)cc1)C(=O)O)C(=O)NCC(=O)NCC(=O)N1CCC[C@H]1C(=O)N[C@@H](CO)C(=O)N[C@@H](CO)C(=O)NCC(=O)N[C@@H](C)C(=O)N1CCC[C@H]1C(=O)N1CCC[C@H]1C(=O)N1CCC[C@H]1C(=O)N[C@@H](CO)C(N)=O)[C@@H](C)CC)[C@@H](C)CC [Example 275] | 0.0152 nM | > 9950 nM | > 9950 nM | 110% | 33.5 nM | – | – | – | – | – | –
2 | CC[C@H](C)[C@H](NC(=O)[C@H](CCCN)NC(=O)[C@H](CC(=O)O)NC(=O)[C@H](CC(C)C)NC(=O)[C@](C)(CC(C)C)NC(=O)[C@@H](NC(=O)C(C)(C)NC(=O)[C@H](Cc1ccc(O)cc1)NC(=O)[C@H](CC(=O)O)NC(=O)[C@H](CO)NC(=O)[C@@H](NC(=O)[C@](C)(Cc1ccccc1F)NC(=O)[C@@H](NC(=O)CNC(=O)[C@H](CCC(=O)O)NC(=O)C(C)(C)NC(=O)[C@@H](N)Cc1ccc(O)cc1)[C@@H](C)O)[C@@H](C)O)[C@@H](C)CC)C(=O)N[C@@H](C)C(=O)N[C@@H](CCC(N)=O)C(=O)NC(C)(C)C(=O)N[C@@H](CCC(=O)O)C(=O)N[C@@H](Cc1ccccc1)C(=O)N[C@H](C(=O)N[C@@H](CCCCNC(=O)COCCOCCNC(=O)CC[C@H](NC(=O)COCCOCCNC(=O)COCCOCCNC(=O)CCCCCCCCCCCCC(=O)O)C(=O)O)C(=O)N[C@@](C)(Cc1ccc(O)cc1)C(=O)N[C@@H](CC(C)C)C(=O)N[C@H](C(=O)N[C@@H](CCCCNC(=O)COCCOCCNC(=O)CC[C@H](NC(=O)COCCOCCNC(=O)COCCOCCNC(=O)CCCCCCCCCCCCC(=O)O)C(=O)O)C(=O)NCC(=O)NCC(=O)N1CCC[C@H]1C(=O)N[C@@H](CO)C(=O)N[C@@H](CO)C(=O)NCC(=O)N[C@@H](C)C(=O)N1CCC[C@H]1C(=O)N1CCC[C@H]1C(=O)N1CCC[C@H]1C(=O)N[C@@H](CO)C(N)=O)[C@@H](C)CC)[C@@H](C)CC [Example 364] | – | – | – | – | – | 89.1% | 0.0111 nM | > 9950 nM | > 9950 nM | 0.347 nM | 13 nM
